Reference: patent US4981848A, “Alpha-adrenergic receptor antagonists” (SmithKline Beecham Corporation, priority 1989, dated 1991)

System: spontaneously hypertensive rats
Assay: antihypertensive activity in the spontaneously hypertensive rat model
Assay type: in vivo
Settings: oral administration at 20 mg/kg
Protocol: The antihypertensive activity of certain compounds of the present invention was determined using the spontaneously hypertensive rat model. The details of this in vivo test are found in Roesler, J. M., et al., J. Pharmacol. Exp. Ther., 236:1-7 (1986).

Substance: N-[(7-Chloro-3,4,5,6-tetrahydro-4-methylthieno[4,3,2-ef][3]benzazepin-2-yl)methyl]2-methylpropanesulfonamide [Example 7]
- arterial blood pressure: dose related reduction in arterial blood pressure
